Laboratory results from patent publication US20130028920A1, “STABILIZED ANTIBODY PREPARATIONS AND USES THEREOF” (UNIVERSITE DE GENEVE, priority 2010, published 2013).
“Also recorded” adds a separate entry of the source.

How the values were obtained:
Format in all cases: physicochemical
Avastin® [1] = experiment: Stability of pre-stressed Avastin® with ATP, GMP or sucrose phosphate, by AFFF-MALS; conditions: for stabilization of Avastin® across molar ratios: Avastin®:compound 1:1, 1:10 and 1:100, pre-stressed, PBS pH 7.0, 40° C., up to 28 days; for Short-term effects on the antibody, compared among ATP, GMP and sucrose phosphate: short term after addition
Protocol: All samples were stored at 40° C. during 28 days. […] The aggregation state of the antibodies was measured by multi-angle light scattering (MALS) after separation by asymmetrical flow field-flow fractionation (AFFF). […] Data were collected and analysed with the Astra software (Wyatt Technology Europe GmbH, Dernbach, Germany). The aggregation state was expressed as the percentage of monomers versus time.
After pre-stressing, Avastin® samples were combined with either ATP, GMP or sucrose phosphate at three Avastin®: compound of formula (I) molar ratios (1:1, 1:10 and 1:100). All samples are stored at a temperature of 40° C. for 28 days and stability is measured as described in Example 3 and compared to a sample of Avastin® alone stored under the same conditions. For GMP, a dilution of GMP was made in PBS pH 7.0 and pH was adjusted to 7.0 before the combination with Avastin® to prevent the risk of higher order aggregates caused by the addition of NaOH directly to the antibody formulation.

Avastin® [2] = experiment: Effect of AMP on the unmodified commercial bevacizumab formulation (Avastin®), stability by AFFF-MALS; conditions: 40° C., 28 days, p<0.05
Protocol: (§1) All samples were stored at 40° C. during 28 days. Samples were analyzed directly after preparation (t0) and after 7, 14 and 28 days. The aggregation state of the antibodies was measured by multi-angle light scattering (MALS) after separation by asymmetrical flow field-flow fractionation (AFFF). […] Data were collected and analysed with the Astra software (Wyatt Technology Europe GmbH, Dernbach, Germany). The aggregation state was expressed as the percentage of monomers versus time.
All samples are stored at a temperature of 40° C. for 28 days and the stability is measured as described in Example 3 and compared to a sample of Avastin® alone stored under the same conditions.

bevacizumab = experiment: Stability of dialyzed, pre-stressed bevacizumab alone and with AMP, percentage of monomers by AFFF-MALS
Protocol: as §1, with “A 50 mM phosphate buffer pH 7.0 was used. The buffer choice was based on a pH range and buffer capacity that is physiologically tolerated and that is acceptable for the stability of antibodies. […]” for “All samples were stored at 40° C. during 28 days.”

[3] = molar ratio 1:1, t1 (1 day at 40° C.)
[4] = molar ratio 1:10, t1 (1 day at 40° C.)
[5] = molar ratio 1:100, t1 (1 day at 40° C.)

Compound	stabilization of Avastin® across molar ratios (Avastin® [1])	aggregation breaker strength in experiments (Avastin® [1]; compared with AMP)	stabilizing effect versus Avastin® alone (Avastin® [1]; [3])	stabilizing effect versus Avastin® alone (Avastin® [1]; [4])	stabilizing effect versus Avastin® alone (Avastin® [1]; [5])	stabilizing effect versus Avastin® alone (Avastin® [1]; molar ratio 1:100, t28 (28 days at 40° C.))	Short-term effects on the antibody, compared among ATP, GMP and sucrose phosphate (Avastin® [1])	stabilization of the antibody (increase in monomers) versus Avastin® alone (Avastin® [2]; Avastin®:AMP 1:10)	stabilization of the antibody (increase in monomers) versus Avastin® alone (Avastin® [2]; Avastin®:AMP 1:100)	percentage of monomers (bevacizumab; formulations of bevacizumab with AMP (1:153 by context), 14 days at 40° C., pH 7.0, n=3)	percentage of monomers (bevacizumab; molar ratio bevacizumab:AMP 1:1.53, 14 days at 40° C., pH 7.0)	percentage of monomers (bevacizumab; molar ratio bevacizumab:AMP 1:1.53, 28 days at 40° C., pH 7.0, n=3)	percentage of monomers (bevacizumab; molar ratio bevacizumab:AMP 1:15.3, 14 days at 40° C., pH 7.0)	percentage of monomers (bevacizumab; molar ratio bevacizumab:AMP 1:15.3, 28 days at 40° C., pH 7.0, n=3)	percentage of monomers (bevacizumab; molar ratio bevacizumab:AMP 1:153, 28 days at 40° C., pH 7, n=3)	stabilizing properties, compared among ATP, GMP and sucrose phosphate (Avastin® [1]; after 28 days of storage at 40° C.)
Nc1ncnc2c1ncn2[C@@H]1O[C@H](COP(=O)(O)OP(=O)(O)OP(=O)(O)O)[C@@H](O)[C@H]1O [ATP, adenosine 5′-triphosphate]	concentration dependent stabilization	less strong breaker than AMP	stabilizing effect is observed	stabilizing effect is observed	stabilizing effect is observed	significant stabilizing effect	most pronounced									
Nc1ncnc2c1ncn2[C@@H]1O[C@H](COP(=O)(O)O)[C@@H](O)[C@H]1O [AMP, adenosine 5′-monophosphate]								significant stabilization is observed at t1, t14 and t28	such a stabilization is observed only at longer incubation times (t14 and t28)	higher than 94%	higher than 80%	higher than 76%	higher than 80%	higher than 76%	around 90%	
sucrose phosphate	concentration-dependent stabilization; also recorded: concentration-dependent stabilizing effect continues up to 28 days		stabilizing effect is observed	stabilizing effect is observed	stabilizing effect is observed		most pronounced									
Nc1nc2c(ncn2[C@@H]2O[C@H](COP(=O)(O)O)[C@@H](O)[C@H]2O)c(=O)[nH]1 [GMP, guanosine 5′-monophosphate]	concentration dependent stabilization		destabilizing	destabilizing	shows an ability to stabilize the antibody											most distinct stabilizing properties
